Reference: ChEMBL document CHEMBL2439971, “Design, synthesis and antiproliferative evaluation of fluorenone analogs with DNA topoisomerase I inhibitory properties” (Bioorg Med Chem, 2013)

How the values were obtained:
SR [1] = assay: Cytotoxicity against human SR cells at 10 uM after 48 hrs by sulforhodamine B assay relative to control; type: functional
MOLT-4 [2] = assay: Cytotoxicity against human MOLT4 cells after 48 hrs by sulforhodamine B assay; type: functional; details: MOLT-4, 48 h
SNB-19 = assay: Cytotoxicity against human SNB19 cells at 10 uM after 48 hrs by sulforhodamine B assay relative to control; type: functional
NCI-H23 [3] = assay: Cytotoxicity against human NCI-H23 cells after 48 hrs by sulforhodamine B assay; type: functional; details: NCI-H23, 48 h
RPMI-8226 = assay: Cytotoxicity against human RPMI8226 cells after 48 hrs by sulforhodamine B assay; type: functional; details: RPMI-8226, 48 h
NCI-H522 = assay: Cytotoxicity against human NCI-H522 cells after 48 hrs by sulforhodamine B assay; type: functional; details: NCI-H522, 48 h
NCI/ADR-RES = assay: Cytotoxicity against human NCI/ADR-RES cells at 10 uM after 48 hrs by sulforhodamine B assay relative to control; type: functional
KM12 [4] = assay: Cytotoxicity against human KM12 cells after 48 hrs by sulforhodamine B assay; type: functional; details: KM12, 48 h
NCI-H23 [5] = assay: Cytotoxicity against human NCI-H23 cells at 10 uM after 48 hrs by sulforhodamine B assay relative to control; type: functional
CCRF-CEM = assay: Cytotoxicity against human CCRF-CEM cells at 10 uM after 48 hrs by sulforhodamine B assay relative to control; type: functional
HT-29 = assay: Cytotoxicity against human HT-29 cells after 48 hrs by sulforhodamine B assay; type: functional; details: HT-29, 48 h
KM12 [6] = assay: Cytotoxicity against human KM12 cells at 10 uM after 48 hrs by sulforhodamine B assay relative to control; type: functional
CAKI-1 [7] = assay: Cytotoxicity against human CAKI-1 cells at 10 uM after 48 hrs by sulforhodamine B assay relative to control; type: functional
SK-MEL-28 [8] = assay: Cytotoxicity against human SK-MEL-28 cells after 48 hrs by sulforhodamine B assay; type: functional; details: SK-MEL-28, 48 h
SK-MEL-28 [9] = assay: Cytotoxicity against human SK-MEL-28 cells at 10 uM after 48 hrs by sulforhodamine B assay relative to control; type: functional
HL-60(TB) = assay: Cytotoxicity against human HL-60(TB) cells after 48 hrs by sulforhodamine B assay; type: functional; details: HL-60, 48 h
OVCAR-4 = assay: Cytotoxicity against human OVCAR4 cells at 10 uM after 48 hrs by sulforhodamine B assay relative to control; type: functional
[10] = Cytotoxicity against human Hs 578T cells at 10 uM after 48 hrs by sulforhodamine B assay relative to control; type: functional
[11] = Cytotoxicity against human Hs 578T cells after 48 hrs by sulforhodamine B assay; type: functional
HOP-62 = assay: Cytotoxicity against human HOP62 cells after 48 hrs by sulforhodamine B assay; type: functional; details: HOP-62, 48 h
BT-549 = assay: Cytotoxicity against human BT549 cells at 10 uM after 48 hrs by sulforhodamine B assay relative to control; type: functional
CAKI-1 [12] = assay: Cytotoxicity against human CAKI-1 cells after 48 hrs by sulforhodamine B assay; type: functional; details: CAKI-1, 48 h
MDA-MB-468 [13] = assay: Cytotoxicity against human MDA-MB-468 cells after 48 hrs by sulforhodamine B assay; type: functional; details: MDA-MB-468, 48 h
HCC 2998 = assay: Cytotoxicity against human HCC2998 cells at 10 uM after 48 hrs by sulforhodamine B assay relative to control; type: functional
SR [14] = assay: Cytotoxicity against human SR cells after 48 hrs by sulforhodamine B assay; type: functional
SF-268 [15] = assay: Cytotoxicity against human SF268 cells at 10 uM after 48 hrs by sulforhodamine B assay relative to control; type: functional
SN12C = assay: Cytotoxicity against human SN12C cells after 48 hrs by sulforhodamine B assay; type: functional
HOP-92 = assay: Cytotoxicity against human HOP92 cells after 48 hrs by sulforhodamine B assay; type: functional; details: HOP-92, 48 h
T47D [16] = assay: Cytotoxicity against human T47D cells after 48 hrs by sulforhodamine B assay; type: functional
T47D [17] = assay: Cytotoxicity against human T47D cells at 10 uM after 48 hrs by sulforhodamine B assay relative to control; type: functional
SK-MEL-2 = assay: Cytotoxicity against human SK-MEL-2 cells at 10 uM after 48 hrs by sulforhodamine B assay relative to control; type: functional
SF-268 [18] = assay: Cytotoxicity against human SF268 cells after 48 hrs by sulforhodamine B assay; type: functional; details: SF-268, 48 h
MDA-MB-468 [19] = assay: Cytotoxicity against human MDA-MB-468 cells at 10 uM after 48 hrs by sulforhodamine B assay relative to control; type: functional
NCI-H226 = assay: Cytotoxicity against human NCI-H226 cells after 48 hrs by sulforhodamine B assay; type: functional; details: NCI-H226, 48 h
SK-OV-3 = assay: Cytotoxicity against human SKOV3 cells after 48 hrs by sulforhodamine B assay; type: functional; details: SK-OV-3, 48 h
MOLT-4 [20] = assay: Cytotoxicity against human MOLT4 cells at 10 uM after 48 hrs by sulforhodamine B assay relative to control; type: functional
RXF 393 = assay: Cytotoxicity against human RXF393 cells after 48 hrs by sulforhodamine B assay; type: functional; details: RXF 393, 48 h
PC-3 = assay: Cytotoxicity against human PC3 cells after 48 hrs by sulforhodamine B assay; type: functional, cell-based; details: PC-3, 48 h
[21] = read-out: LC50 (the source's name)

Q: Which results are given for `CCCCNCC(=O)Nc1ccc2c(c1)C(=O)c1cc(NC(=O)CNCCCC)ccc1-2`?
A: Activity (SR [1]): -56.48%; GI50 (MOLT-4 [2]): 0.56 µM; TGI (MOLT-4 [2]): 2.29 µM; CC50 (MOLT-4 [2]; [21]): 7.26 µM; Activity (SNB-19): 39.02%; GI50 (NCI-H23 [3]): 2.63 µM; TGI (NCI-H23 [3]): 10.1 µM; CC50 (NCI-H23 [3]; [21]): 35.7 µM; GI50 (RPMI-8226): 1.86 µM; TGI (RPMI-8226): 4.9 µM; CC50 (RPMI-8226; [21]): 4.6 µM; GI50 (NCI-H522): 2.08 µM; TGI (NCI-H522): 4.08 µM; CC50 (NCI-H522; [21]): 7.99 µM; Activity (NCI/ADR-RES): 64.82%; GI50 (KM12 [4]): 1.64 µM; TGI (KM12 [4]): 3.38 µM; CC50 (KM12 [4]; [21]): 7 µM; Activity (NCI-H23 [5]): 70.39%; Activity (CCRF-CEM): -35.23%; GI50 (HT-29): 1.1 µM; TGI (HT-29): 2.53 µM; CC50 (HT-29; [21]): 5.86 µM; Activity (KM12 [6]): 30.09%; Activity (CAKI-1 [7]): 62.66%; GI50 (SK-MEL-28 [8]): 1.94 µM; TGI (SK-MEL-28 [8]): 3.46 µM; CC50 (SK-MEL-28 [8]; [21]): 6.18 µM; Activity (SK-MEL-28 [9]): -81.88%; GI50 (HL-60(TB)): 1.1 µM; TGI (HL-60(TB)): 2.77 µM; CC50 (HL-60(TB); [21]): 6.98 µM; Activity (OVCAR-4): -29.46%; Activity [10]: 37.13%; GI50 [11]: 2.63 µM; TGI [11]: 9.23 µM; CC50 [11, 21]: 70.9 µM; GI50 (HOP-62): 2.07 µM; TGI (HOP-62): 6.74 µM; CC50 (HOP-62; [21]): 26 µM; Activity (BT-549): 69.3%; GI50 (CAKI-1 [12]): 1.79 µM; TGI (CAKI-1 [12]): 6.45 µM; CC50 (CAKI-1 [12]; [21]): 26.9 µM; GI50 (MDA-MB-468 [13]): 1.85 µM; TGI (MDA-MB-468 [13]): 3.57 µM; CC50 (MDA-MB-468 [13]; [21]): 6.89 µM; Activity (HCC 2998): -50.75%; GI50 (SR [14]): 0.22 µM; TGI (SR [14]): 0.53 µM; CC50 (SR [14]; [21]): 3.44 µM; Activity (SF-268 [15]): 38.37%; GI50 (SN12C): 3.48 µM; TGI (SN12C): 14.6 µM; CC50 (SN12C; [21]): 41.2 µM; GI50 (HOP-92): 1.4 µM; TGI (HOP-92): 3.77 µM; CC50 (HOP-92; [21]): 10.6 µM; GI50 (T47D [16]): 1.56 µM; TGI (T47D [16]): 2.98 µM; CC50 (T47D [16]; [21]): 5.71 µM; Activity (T47D [17]): -26.4%; Activity (SK-MEL-2): -63.34%; GI50 (SF-268 [18]): 1.69 µM; TGI (SF-268 [18]): 3.97 µM; CC50 (SF-268 [18]; [21]): 9.33 µM; Activity (MDA-MB-468 [19]): -67.44%; GI50 (NCI-H226): 10.1 µM; TGI (NCI-H226): 23.3 µM; CC50 (NCI-H226; [21]): 53.6 µM; GI50 (SK-OV-3): 2.55 µM; TGI (SK-OV-3): 8.26 µM; CC50 (SK-OV-3; [21]): 29.5 µM; Activity (MOLT-4 [20]): -42.18%; GI50 (RXF 393): 1.83 µM; TGI (RXF 393): 3.52 µM; CC50 (RXF 393; [21]): 6.78 µM; GI50 (PC-3): 1.72 µM; IC50 (PC-3): 3.61 µM; LC50 (concentration killing 50% of cells) (PC-3): 13.1 µM; TGI (PC-3): 4.34 µM
